The text below walks through data of patent US8217042B2, “Pyridopyrazines and their use as modulators of kinases” (Zentaris GmbH, priority 2005, dated 2012).

As usually defined, the melting point is the temperature of the solid-liquid transition. The inhibition is the change of the read-out against control, counted positive when it falls. Low readings indicate a weak effect, high ones a strong effect. A word on the IC50: it is the concentration needed to halve the response being measured. For orientation: EC50 means the concentration at which the effect is half-maximal.

One data set concerns Erk →pRsk. The experiment in a line: Cellular substrate phosphorylation (Western blotting), Erk substrate Rsk1. The class given is cell-based. To be noted: 5 h, tumour cell line. The method, then: (§1) This method enables a statement of whether the kinase modulator investigated achieves the desired effect in a cellular context too, i.e., in this case, a substrate protein downstream of the target kinase is examined for its phosphorylation status. To this end, the cells incubated with substance are lysed and the overall protein is separated on a reducing polyacrylamide gel. Subsequently, the proteins are transferred by means of Western blotting to a PVDF membrane and the substrate bands sought are made visible with specific antibodies and a suitable detection method. The substrate proteins downstream of the target kinases are detected simultaneously with an anti-phospho antibody which is specific in each case and simultaneously a total antibody which recognizes the substrate total protein. The duplex technology of the ODYSSEY imager (LiCOR) enables this simultaneous measurement. The intensity of the total substrate bands is employed to normalize and quantify the phosphorylation inhibition or activation.
(§2) Suitable tumour cell lines (e.g. BxPC3, Hct116 or MDA MB468) were seeded into 6-well microtitre plates in a defined cell count (e.g. 350 000 cells/well for BxPC3 and Hct116) in the particular standard complete media and then incubated overnight in an incubator at 37° C., 5% CO2 and 95% air humidity. The cells were then incubated further for a further 24 h under reduced-serum conditions, i.e. in the particular medium except at only 0.25% serum. The test substances were made up as stock solutions (10 mM) in DMSO and incubated with the cells at final concentrations of 5, 15.8 and 50 μM for 5 h. This was followed by cell lysis in 25 mM Tris, 150 mM NaCl, 10 mM sodium pyrophosphate, 2 mM EGTA, 25 mM beta-glycerophosphate, 25 mM NaF, 10% glycerol, 0.75% NP-40, 100 μM NaVO4 buffer. After protein quantification by means of BCA (bicinchonic acid protein assay kit, Sigma) assay, amounts of protein of about 20 μg per track were separated on a Lammli polyacrylamide gel and then transferred onto a PVDF membrane (Millipore) by means of semi-dry Western blotting at 0.8 mA/cm^2 for 1 h. This was followed by prehybridization of the membrane for 1 hour in I-block reagent (Applied Biosystems) and overnight incubation with the specific antibodies. To determine the Erk and PI3K inhibition, the next substrates Rsk1 downstream were detected with the total antibody (Rsk #sc-231g C-21, Santa Cruz) and the phospho antibody (Phospho-p90RSK (S380) #9341, NEB Cell Signalling) and Akt with the total antibody (Akt1 #sc-20, Santa Cruz) and the phospho antibody (Phospho-Akt (Ser 473) #9271, NEB Cell Signaling). After the membrane had been washed, the secondary antibodies were incubated with anti-rabbit IR Dye 800 (#611-732-127, Rockland) for the phospho antibody and anti-goat Alexa Fluor 680 (#A-21081, […]) for the total protein antibody. After incubation for 30 min at room temperature in the dark, the hybridization of the detection antibody was detected on the membrane by scanning in an ODYSSEY imager (LiCOR).
(In general: A western blot detects proteins with antibodies after separation by electrophoresis.)

The next data set relates to PI3K →pAkt. Description: Cellular substrate phosphorylation (Western blotting), PI3K substrate Akt. The class given is cell-based. Particulars: 5 h, tumour cell line. The method, then: as §1, §2
A further data set has as its system Jnk1 + Jnk2. The experiment in a line: Cell-free kinase assay (ALPHA technology), Jnk1 + Jnk2. The class given is biochemical. To be noted: at 10 μM or 100 μM* ATP, recombinant human kinases. The method, then:
The inhibitory effect of the inventive compounds was tested on various human serine/threonine kinases, tyrosine kinases and lipid kinases in enzymatic assays. Recombinant human kinases, for example Erk2, PI3Kalpha, -beta, -gamma, -delta, p38alpha, p38gamma, Jnk1, Jnk2 and others were used, in some cases as full-length kinases, in some cases as truncated fragments—but at least consisting of the functional kinase domains. The commercial kinase proteins (Proqinase, Upstate) were used as recombinant fusion proteins with GST (glutathione S-transferase) tag or His tag. Depending on the substrate type, the different kinase reactions were quantified by means of suitable ALPHA™ beads (PerkinElmer). […]
(§3) The fluorescence was detected the next morning in a Fusion™ alpha instrument (Perkin Elmer).
(§4) The calculation of % inhibition values per substance concentration was done by means of the following formula from the raw data determined in the Fusion™ alpha:
(§5) The controls were each determined 8 times, the substance samples each twice. 0% control contained neither any ATP nor any substrate; the 100% control contained no test substance. The IC50 values were determined with GraphPadPrism.

Another data set concerns BxPC3. The experiment in a line: XTT assay, anti-proliferative action, BxPC3. The class given is cell-based. Particulars: BxPC3 cells, 45 h incubation. The method, then: (§6) The principle of this test is based on the intracellular reduction of the tetrazolium dye XTT (sodium 3′-[1-(phenylaminocarbonyl)-3,4-tetrazolium]bis(4-methoxy-6-nitro)benzenenesulphonic acid, Sigma) to a formazan dye by mitochondrial dehydrogenases.
(§7) The dye is formed only by metabolically active cells; its photometrically measurable intensity is a quantitative indicator for the presence of living cells. The reduction in the dye formation as a result of incubation of the cells with substances serves as a parameter for the anti-proliferative action.
(§8) The tumour cell lines (ATCC) were seeded in 96-well microtitre plates in a defined cell count (5000 cells/well for BxPC3 and Hct116; 10 000 cells/well for MDA MB468), and then incubated overnight in an incubator at 37° C., 5% CO2 and 95% air humidity. The test substances were made up as stock solutions (10 mM) in DMSO. […] The cell plates were then incubated for 45 h in an incubator at 37° C., 5% CO2 and 95% air humidity.
(§9) For the detection reaction, the XTT substrate was admixed with PMS (N-methyldibenzopyrazine methylsulphate, Sigma) and added to the cells, so as to result in a final concentration of 325 μg of XTT/ml and 2.5 μg PMS/ml. The mixture was then incubated for 3 h at 37° C., 95% air humidity. Subsequently the formazan salt formed by cellular dehydrogenases was quantified at an absorption of 490 nm.
(§10) The evaluation of the % inhibition values was done by means of the following formula from the values for the optical densities measured in each case at 490 nm:
(§11) The controls were determined 8 times each, the substance samples twice each. 0% control contained no cells; the 100% control contained no test substance. The EC50 values were determined with GraphPadPrism.
(In general: Tetrazolium assays rely on reduction of a dye to a coloured formazan, in cell work by metabolically active cells.)

The test system of a further data set is Hct116. The experiment in a line: XTT assay, anti-proliferative action, Hct116. The class given is cell-based. Particulars: Homo sapiens, HCT-116, 45 h, Hct116 cells, 45 h incubation. The method, then:
as §6, §7, §8, §9, §10, §11

The target of a further data set is T1, Erk2.
T1 construct: in some cases as full-length kinases, in some cases as truncated fragments; purchased Upstate 14-173
T1 sequence (P63085 whole entry, the tested form may be a part): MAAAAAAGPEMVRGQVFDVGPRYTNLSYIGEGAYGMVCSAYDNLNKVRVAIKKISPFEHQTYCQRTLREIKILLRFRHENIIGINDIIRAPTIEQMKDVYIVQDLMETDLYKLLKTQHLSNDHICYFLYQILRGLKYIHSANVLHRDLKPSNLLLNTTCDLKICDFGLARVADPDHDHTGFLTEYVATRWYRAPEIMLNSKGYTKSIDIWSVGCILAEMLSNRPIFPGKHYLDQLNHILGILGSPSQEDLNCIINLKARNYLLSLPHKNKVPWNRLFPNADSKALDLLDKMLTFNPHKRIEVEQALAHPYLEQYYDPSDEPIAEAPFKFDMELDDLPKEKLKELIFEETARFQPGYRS
The experiment in a line: Cell-free kinase assay (ALPHA technology), Erk2-ALPHA. The class given is biochemical. Particulars: 10 μM ATP, recombinant human kinase. The method, then: (§12) The inhibitory effect of the inventive compounds was tested on various human serine/threonine kinases, tyrosine kinases and lipid kinases in enzymatic assays. Recombinant human kinases, for example Erk2, PI3Kalpha, -beta, -gamma, -delta, p38alpha, p38gamma, Jnk1, Jnk2 and others were used, in some cases as full-length kinases, in some cases as truncated fragments—but at least consisting of the functional kinase domains. The commercial kinase proteins (Proqinase, Upstate) were used as recombinant fusion proteins with GST (glutathione S-transferase) tag or His tag. Depending on the substrate type, the different kinase reactions were quantified by means of suitable ALPHA™ beads (PerkinElmer).
(§13) The substrate testing on the Erk assay is described in detail below. Selected test results of the Erk2, PI3Kalpha assays are cited below. […] The kinase reaction was then stopped by adding 10 μl of the ALPHA bead mix (10 μg/ml, #6760617/PerkinElmer), pre-incubated with anti-phospho MBP antibody (320 μM, #05-429/Upstate), in 25 mM Tris, 200 mM NaCl, 100 mM EDTA and 0.3% BSA, and left to stand overnight. • b) PI3K-ALPHAs (e.g. PI3Kalpha): The test substance, 1 ng of PI3Kalpha (#14-602, Upstate), 100 μM ATP and 20 μM PIP2 substrate (#P4508, Echelon) on a 384-well Optiplate (Perkin Elmer) for 1 h in 50 mM Hepes, 50 mM NaCl, 5 mM MgCl2, 0.05% Chaps, 5 mM DTT at pH 7.4. Subsequently, the kinase reaction was stopped by adding the ALPHA bead mix (10 μg/ml, #6760603/PerkinElmer), preincubated with 1 nM GST:Grp1 fusion protein (Upstate) and 15 nM biotinylated PIP3 (#C-39B6/Echelon) in 50 mM Hepes, 50 mM NaCl, 50 mM EDTA and 0.1% BSA, and left to stand overnight.
as §3, §4, §5

A further data set has as its target T2, PI3Kalpha (Homo sapiens, UniProt P42336).
T2 construct: in some cases as full-length kinases, in some cases as truncated fragments; purchased Upstate 14-602
The experiment in a line: Cell-free kinase assay (ALPHA technology), PI3K-ALPHA. The class given is biochemical. Particulars: 100 μM ATP, recombinant human kinase. The method, then: as §12, §13, §3, §4, §5

Another data set concerns MDA-MB468. Description: XTT assay, anti-proliferative action, MDA-MB468. The class given is cell-based. Particulars: MDA-MB468 cells, 45 h incubation. The method, then:
as §6, §7, §8, §9, §10, §11

T2 sequence (P42336 whole entry, the tested form may be a part): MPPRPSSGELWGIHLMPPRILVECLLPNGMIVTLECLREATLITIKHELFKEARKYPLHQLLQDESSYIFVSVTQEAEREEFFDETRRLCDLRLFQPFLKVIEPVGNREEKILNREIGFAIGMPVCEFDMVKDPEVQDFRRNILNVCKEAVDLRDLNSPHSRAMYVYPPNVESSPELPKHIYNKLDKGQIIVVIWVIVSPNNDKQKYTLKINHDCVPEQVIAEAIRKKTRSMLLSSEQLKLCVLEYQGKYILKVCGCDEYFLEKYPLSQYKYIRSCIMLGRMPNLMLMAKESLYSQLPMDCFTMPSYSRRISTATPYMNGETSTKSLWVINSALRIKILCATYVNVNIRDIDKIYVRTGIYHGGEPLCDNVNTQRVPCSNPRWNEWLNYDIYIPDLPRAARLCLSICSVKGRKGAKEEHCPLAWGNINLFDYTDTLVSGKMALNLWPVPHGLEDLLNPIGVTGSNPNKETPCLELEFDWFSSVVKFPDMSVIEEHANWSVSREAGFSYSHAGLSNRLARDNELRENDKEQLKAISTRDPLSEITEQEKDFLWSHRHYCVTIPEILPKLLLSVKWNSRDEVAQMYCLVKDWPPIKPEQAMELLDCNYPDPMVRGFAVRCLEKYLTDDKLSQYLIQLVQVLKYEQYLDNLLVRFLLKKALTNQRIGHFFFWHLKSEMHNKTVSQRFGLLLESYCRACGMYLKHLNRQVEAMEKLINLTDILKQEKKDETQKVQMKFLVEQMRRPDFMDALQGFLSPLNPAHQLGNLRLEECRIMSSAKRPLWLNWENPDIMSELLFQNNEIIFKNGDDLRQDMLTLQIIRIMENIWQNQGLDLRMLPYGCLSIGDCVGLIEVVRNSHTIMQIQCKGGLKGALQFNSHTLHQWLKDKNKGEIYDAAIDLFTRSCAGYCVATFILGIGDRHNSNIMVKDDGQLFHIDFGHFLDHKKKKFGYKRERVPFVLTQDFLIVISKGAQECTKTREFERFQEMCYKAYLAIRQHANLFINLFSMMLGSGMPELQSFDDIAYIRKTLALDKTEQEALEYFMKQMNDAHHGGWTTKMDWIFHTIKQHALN
T2 sequence (P27986 whole entry partner, the tested form may be a part): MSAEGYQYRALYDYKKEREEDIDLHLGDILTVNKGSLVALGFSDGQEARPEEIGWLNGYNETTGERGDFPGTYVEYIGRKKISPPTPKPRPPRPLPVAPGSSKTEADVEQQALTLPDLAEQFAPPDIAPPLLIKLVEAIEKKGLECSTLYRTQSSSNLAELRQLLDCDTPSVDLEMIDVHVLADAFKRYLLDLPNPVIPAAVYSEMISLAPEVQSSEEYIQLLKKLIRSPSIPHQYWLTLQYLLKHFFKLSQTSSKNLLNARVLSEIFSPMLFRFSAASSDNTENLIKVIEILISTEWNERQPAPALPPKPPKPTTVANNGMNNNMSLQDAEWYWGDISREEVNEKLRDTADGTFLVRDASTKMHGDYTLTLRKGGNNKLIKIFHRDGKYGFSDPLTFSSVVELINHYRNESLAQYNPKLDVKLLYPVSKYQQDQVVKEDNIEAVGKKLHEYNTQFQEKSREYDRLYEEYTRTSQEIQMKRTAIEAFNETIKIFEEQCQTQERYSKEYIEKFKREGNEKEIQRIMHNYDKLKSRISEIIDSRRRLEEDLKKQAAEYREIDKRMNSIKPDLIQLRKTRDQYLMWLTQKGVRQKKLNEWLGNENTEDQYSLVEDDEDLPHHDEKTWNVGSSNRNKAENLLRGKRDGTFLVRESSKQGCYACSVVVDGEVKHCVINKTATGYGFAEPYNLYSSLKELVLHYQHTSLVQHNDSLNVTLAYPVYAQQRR

The compound `CCNC(=O)Nc1ccc2ncc(-c3ccc(OC(=O)OC)cc3)nc2n1` [Compound 9, 4-[6-(3-Ethylurea)pyrido[2,3-b]pyrazin-3-yl]phenyl methyl carbonate] came in with a melting point of 243 to 245 °C. In addition, in the data set on Erk →pRsk, the inhibition at 50 µM worked out at 90%. In the data set on PI3K →pAkt, this compound returned an inhibition at 50 µM of 50%. The IC50 with Jnk1 + Jnk2 was above 100 µM.
As to `CCNC(=O)Nc1ccc2ncc(-c3ccc(OC(=O)OCC(C)C)cc3)nc2n1` [Compound 17, 4-[6-(3-Ethylurea)pyrido[2,3-b]pyrazin-3-yl]phenyl isobutyl carbonate], the concentration for a half-maximal effect (EC50) in the data set with BxPC3 (Homo sapiens, BXPC-3, 45 h) was above 25 µM; in the data set with Hct116 it was 3.4 µM; with MDA-MB468 (Homo sapiens, MDA-MB-468, 45 h), above 25 µM. The IC50 at Erk2 is 0.167 µM; on PI3Kalpha, 11.8 µM; with Jnk1 + Jnk2, above 100 µM.
As for `CCNC(=O)Nc1ccc2ncc(-c3ccc(OC(=O)OCCOC)cc3)nc2n1` [Compound 56, 4-[6-(3-Ethylurea)pyrido[2,3-b]pyrazin-3-yl]phenyl 2-methoxyethyl carbonate p-toluenesulphonate], the results for the EC50 in the data set on BxPC3, in the data set with Hct116 and in the data set on MDA-MB468 were above 20 µM, 9.4 µM and 15.5 µM, respectively. In addition, the 50% inhibitory concentration (IC50) on Erk2 worked out at 0.272 µM; on PI3Kalpha, 1.3 µM; in the data set on Jnk1 + Jnk2 it was 3.1 µM.
For the compound `CCNC(=O)Nc1ccc2ncc(-c3ccc(OC(=O)OCCOC)c(OC)c3)nc2n1` [Compound 32, 4-[6-(3-Ethylurea)pyrido[2,3-b]pyrazin-3-yl]-2-methoxyphenyl 2-methoxyethyl carbonate], the inhibition at 50 µM in the data set with Erk →pRsk was 100%; with PI3K →pAkt it was 90%. The 50% effective concentration (EC50) in the data set on BxPC3 (Homo sapiens, BXPC-3, 45 h) came out at 5.9 µM; in the data set on Hct116 it was 2.2 µM; with MDA-MB468 (Homo sapiens, MDA-MB-468, 45 h), 4.5 µM. Besides, the results for the IC50 on Erk2, on PI3Kalpha and in the data set on Jnk1 + Jnk2 were 0.824 µM, 1.3 µM and 4.2 µM, respectively.
In turn, `CCNC(=O)Nc1ccc2ncc(-c3ccc(OC(=O)OCCOC)cc3)nc2n1` [Compound 10, 4-[6-(3-Ethylurea)pyrido[2,3-b]pyrazin-3-yl]phenyl(2-methoxyethyl)carbonate] gave a melting point of 230 to 232 °C. In addition, the inhibition at 50 µM with Erk →pRsk was 100%. The same compound returned an inhibition at 50 µM in the data set on PI3K →pAkt of 100%. The half-inhibitory concentration (IC50) in the data set with Jnk1 + Jnk2 came to 2.9 µM.
In the case of `CCNC(=O)Nc1ccc(-c2cnc3ccc(NC(=O)NCC)nc3n2)cc1` [Compound 23, 1-Ethyl-3-{3-[4-(3-ethylurea)phenyl]pyrido[2,3-b]pyrazin-6-yl}urea], the melting point was > 350 °C (dec.). In the data set on Erk →pRsk, this compound came in with an inhibition at 50 µM of 0%. This compound had an inhibition at 50 µM in the data set on PI3K →pAkt of 70%. In addition, the half-maximal effective concentration (EC50) with BxPC3 (Homo sapiens, BXPC-3, 45 h) was above 50 µM. In addition, the EC50 with Hct116 turned out to be 16 µM. For the same compound, the IC50 at Erk2 was found to be 1.9 µM. Moreover, at PI3Kalpha, the IC50 amounted to 1.3 µM. The compound also gave an EC50 in the data set on MDA-MB468 (Homo sapiens, MDA-MB-468, 45 h) above 25 µM. For the same compound, the half-inhibitory concentration (IC50) with Jnk1 + Jnk2 was determined as 5.7 µM.
